Measurements published in patent EP1210336B1, “SUBSTITUTED BENZIMIDAZOLES AS NON-NUCLEOSIDE INHIBITORS OF REVERSE TRANSCRIPTASE” (THE UNITED STATES OF AMERICA, as represented by the …, priority 1999, dated 2001).
Where “and” joins values, the source holds several entries; their conditions need not be identical. Equal entries are not always repeated. Where two headings read alike, the source gives them in different places.

Assays:
WT virus (NL4-3) = assay: microbe, parasite or virus in culture; format: cell-based, HIV-1; settings: Table 11, CEMSS/NL4-3, NRVC = reduction in viral CPE not seen (footnote); for EC50: read-out: EC50
Description: Evaluation of these compounds for the inhibition of HIV-1 was determined as the fifty percent cell culture inhibitory concentration (CIC50) in CEMSS cell culture with WT virus (NL4-3).
(§1) In this Example, the antiviral and cellular toxicity of NNRTIs was investigated, using the cytopathic cell killing assay described by Yang (Yang et al., "Characteristics of a Group of Non-nucleoside Reverse Transcriptase Inhibitors with Structural Diversity and Potent Anti-Human Immunodeficiency Virus Activity," Leukemia 9:S75-S85 [1995]). Briefly, in this method cells (e.g., the CEM-SS cell line, available from the NIAID AIDS Research and Reference Program [ARRRP]) were seeded at a density of 5 x 10^3 cells/well, into the wells of a 96-well microtiter plate. The cells were then infected with HIV virus (either mutant or WT), at a multiplicity of infection (MOI) previously determined to provide complete cell killing by 6 days of culture post-infection (e.g., MOI of 0.01-0.05). Each of the HIV isolates was pre-titered to induce equivalent levels of infection based on cell killing or virus production, prior to their use in these assays. A range of test compound concentrations was added to the wells in triplicate (e.g., serial half-log dilutions) to evaluate inhibition of HIV infection. Controls for each assay included drug controls (drug colorimetric control wells), drug cytotoxicity control wells (cells with drug), virus control wells (cells with virus), and cell viability controls (cells only). Positive control drugs (e.g., AZT and ddC) were also run in parallel.
(§2) After six days of incubation at 37°C, cell viability was determined spectrophotometrically at 450 nm for each well, using the metabolic reduction of XTT to a soluble colored formazan. (See, Gartner and Popovic, "Virus Isolation and Production, in Aldovini and Walker (eds.), Techniques in HIV Research, Stockton Press, NY, pp. […] [1991]; and Nara and Fischinger, "Quantitative Infectivity Assay for HIV-1 and HIV-2," Nature 332:469-470 [1988]).
(§3) The in vitro therapeutic index (TI50) was defined as the fold-difference between the EC50 and IC50. The results for the various compounds are included in Figures 8 and 19.

NL4-3 (WT) = assay: Cytopathic cell killing assay, cross-resistance profile, infected MT-4 cells; format: cell-based, HIV-1
Description: (§4) The various HIV isolates tested in the Figures are those corresponding to wild-type virus (NL4-3) and the other strains listed by their RT mutations. The three 4xAZT isolates included in the Figures represent AZT drug-resistant variants. For example, the 4xAZT/L100I isolate has five mutations: four mutations confer increased resistance to AZT, and the other mutation is located within the NNRTI binding pocket. TZB and nevir. (nevirapine) are two well-known NNRTIs, included in this experiment for comparison purposes. […]
as §1, §2, §3

HIV-1 variant K101E = assay: as above; format: cell-based
Description: as §4, §1, §2, §3

HIV-1 variant K103N = assay: as above; format: cell-based; settings: for EC50: isolate K103N
Description: as §4, §1, §2, §3

HIV-1 variant V108I = assay: as above; format: cell-based
Description: as §4, §1, §2, §3

HIV-1 variant Y181C = assay: as above; format: cell-based; settings: isolate Y181C
Description: as §4, §1, §2, §3

HIV-1 variant Y188C = assay: as above; format: cell-based
Description: as §4, §1, §2, §3

[1] = system: HIV-1 isolate 4xAZT/Y181C; assay: as above; format: cell-based; settings: isolate 4XAZT /Y181C
Description: as §4, §1, §2, §3

HIV-1 isolate 4xAZT = assay: as above; format: cell-based; settings: isolate 4XAZT
Description: as §4, §1, §2, §3

HIV-1 variant A98G = assay: as above; format: cell-based
Description: as §4, §1, §2, §3

HIV-1 variant L100I = assay: as above; format: cell-based
Description: as §4, §1, §2, §3

HIV-1 variant L74V = assay: as above; format: cell-based
Description: as §4, §1, §2, §3

HIV-1 variant V106A = assay: as above; format: cell-based
Description: as §4, §1, §2, §3

HIV-1 variant V179D = assay: as above; format: cell-based; settings: isolate V179D
Description: as §4, §1, §2, §3

[2] = Table 10 (values in µM), read-out: EC50
[3] = Human immunodeficiency virus 1, MT4, Table 8
[4] = Human immunodeficiency virus 1, MT4, Table 9

CC(C)(O)c1cccc2c1nc(-c1c(F)cccc1F)n2Cc1c(F)cccc1F [compound 65, 1-(2,6-Difluorobenzyl)-2-(2,6-difluorophenyl)-4-benzimidazoyl-2-propanol]
EC50 (WT virus (NL4-3)): 634 µM

[N-]=[N+]=NCc1cccc2c1nc(-c1c(F)cccc1F)n2Cc1c(F)cccc1F [compound 70, 1-(2,6-difluorobenzyl)-2-(2,6-difluorophenyl)benzimidazol-4-yl-azidomethyl]
EC50 (WT virus (NL4-3)): 0.045 µM
EC50 (NL4-3 (WT); Table 10 (values in µM), isolate NL4-3 (WT), listed as CH2-N3, read-out: EC50): 0.045 µM and 0.06 µM
EC50 (HIV-1 variant K101E; Table 10 (values in µM), isolate K101E, read-out: EC50): 0.6 µM
EC50 (HIV-1 variant K103N; [2]): 1.48 µM
EC50 (HIV-1 variant V108I; Table 10 (values in µM), isolate V108l, read-out: EC50): 0.026 µM
EC50 (HIV-1 variant Y181C; [2]): 0.82 µM
EC50 (HIV-1 variant Y188C; Table 10 (values in µM), isolate Y188C, read-out: EC50): 0.22 µM

CC(=O)NCc1cccc2c1nc(-c1c(F)cccc1F)n2Cc1c(F)cccc1F [compound 72]
EC50 (µM) (WT virus (NL4-3)): NRVC

CC(=O)N(C)Cc1cccc2c1nc(-c1c(F)cccc1F)n2Cc1c(F)cccc1F [compound 73, 1-(2,6-Difluorobenzyl)-2-(2,6-difluorophenyl)-4-(N-acetyl-N-methyl)-aminomethylbenzimidazole]
EC50 (WT virus (NL4-3)): 0.58 µM

Cc1ccnc2c1NC(=O)c1cccnc1N2C1CC1 [nevirapine, reference compound]
EC50 (WT virus (NL4-3); Human immunodeficiency virus 1, NL43, CEM-SS): 0.035 µM
EC50 (NL4-3 (WT); Human immunodeficiency virus 1, NL43, MT4, Table 8, isolate N1.43): 0.04 µM
EC50 (NL4-3 (WT); Human immunodeficiency virus 1, NL43, MT4, Table 9, isolate NL4.3): 0.04 µM
EC50 [1, 3]: 3 µM
EC50 [1, 4]: 3 µM
EC50 (HIV-1 isolate 4xAZT; [3]): > 0.5 µM
EC50 (HIV-1 isolate 4xAZT; [4]): > 0.5 µM
EC50 (HIV-1 variant A98G; Human immunodeficiency virus 1, MT4, Table 8, isolate A9SG): 0.8 µM
EC50 (HIV-1 variant A98G; Human immunodeficiency virus 1, MT4, Table 9, isolate A98G): 0.8 µM
EC50 (HIV-1 variant K101E; Human immunodeficiency virus 1, MT4, Table 8, isolate K101E): 1.1 µM
EC50 (HIV-1 variant K101E; Human immunodeficiency virus 1, MT4, Table 9, isolate KIOIE): 1.1 µM
EC50 (HIV-1 variant K103N; [3]): > 10 µM
EC50 (HIV-1 variant K103N; [4]): > 10 µM
activity against the K103N mutation / isolate (HIV-1 variant K103N; result in words, cytopathic cell killing assay): ineffective
EC50 (HIV-1 variant L100I; Human immunodeficiency virus 1, MT4, Table 8, isolate 1.1001): 0.2 µM
EC50 (HIV-1 variant L100I; Human immunodeficiency virus 1, MT4, Table 9, isolate L1001): 0.2 µM
EC50 (HIV-1 variant L74V; Human immunodeficiency virus 1, MT4, Table 8, isolate 1.74V): 0.04 µM
EC50 (HIV-1 variant L74V; Human immunodeficiency virus 1, MT4, Table 9, isolate 1.74 V): 0.04 µM
EC50 (HIV-1 variant V106A; Human immunodeficiency virus 1, MT4, Table 8, isolate V 106A): > 10 µM
EC50 (HIV-1 variant V106A; Human immunodeficiency virus 1, MT4, Table 9, isolate V106A): > 10 µM
EC50 (HIV-1 variant V108I; Human immunodeficiency virus 1, MT4, Table 8, isolate V1081): 0.4 µM
EC50 (HIV-1 variant V108I; Human immunodeficiency virus 1, MT4, Table 9, isolate V1081): 0.4 µM
EC50 (HIV-1 variant V179D; [3]): 4.9 µM
EC50 (HIV-1 variant V179D; [4]): 0.2 µM
EC50 (HIV-1 variant Y181C; [4]): 4.9 µM
EC50 (HIV-1 variant Y188C; Human immunodeficiency virus 1, MT4, Table 8, isolate Y 188C): > 0.5 µM
EC50 (HIV-1 variant Y188C; Human immunodeficiency virus 1, MT4, Table 9, isolate Y188C): > 0.5 µM
